Experiments:
Septoria tritici = assay: in vivo preventive Septoria tritici test (wheat); conditions: preventive spray, evaluated 21 days after inoculation
Source text: (§1) A synergistic effect of fungicides is always present when the fungicidal activity of the active compound combinations exceeds the total of the activities of the active compounds when applied individually. The expected activity for a given combination of two active compounds can be calculated as follows (cf. Colby, S. R., “Calculating Synergistic and Antagonistic Responses of Herbicide Combinations”, Weeds 1967, 15, 20-22): • If • X is the efficacy when active compound A is applied at an application rate of m ppm (or g/ha), • Y is the efficacy when active compound B is applied at an application rate of n ppm (or g/ha), • E is the efficacy when the active compounds A and B are applied at application rates of m and n ppm (or g/ha), respectively, and • then
(§2) The degree of efficacy, expressed in % is denoted. 0% means an efficacy which corresponds to that of the control while an efficacy of 100% means that no disease is observed.
To produce a suitable preparation of active compound, 1 part by weight of active compound or active compound combination is mixed with the stated amounts of solvent and emulsifier, and the concentrate is diluted with water to the desired concentration.
To test for preventive activity, young plants are sprayed with the preparation of active compound or active compound combination at the stated rate of application.
After the spray coating has been dried, the plants are sprayed with a spore suspension of Septoria tritici. The plants remain for 48 hours in an incubation cabinet at approximately 20° C. and a relative atmospheric humidity of approximately 100% and afterwards for 60 hours at approximately 15° C. in a translucent incubation cabinet at a relative atmospheric humidity of approximately 100%.
The plants are placed in the greenhouse at a temperature of approximately 15° C. and a relative atmospheric humidity of approximately 80%.
The test is evaluated 21 days after the inoculation. 0% means an efficacy which corresponds to that of the untreated control, while an efficacy of 100% means that no disease is observed.

Alternaria solani = assay: in vivo preventive test on Alternaria test (tomatoes); conditions: preventive spray, evaluated 3 days after inoculation
Source text: as §1, §2
To produce a suitable preparation of active compound, 1 part by weight of active compound is mixed with the stated amounts of solvent and emulsifier, and the concentrate is diluted with water to the desired concentration.
To test for preventive activity, young plants are sprayed with the preparation of active compound at the stated rate of application. After the spray coating has dried on, the plants are inoculated with an aqueous spore suspension of Alternaria solani. The plants are then placed in an incubation cabinet at approximately 20° C. and a relative atmospheric humidity of 100%.
The test is evaluated 3 days after the inoculation. 0% means an efficacy which corresponds to that of the untreated control while an efficacy of 100% means that no disease is observed.

[1] = log P by HPLC on reversed phase columns (EEC directive 79/831 Annex V.A8); format: physicochemical; conditions: pH 2.7, pH 2,7, 0.1% formic acid in water / acetonitrile gradient
Method: Measurement of log P values was performed according EEC directive 79/831 Annex V.A8 by HPLC (High Performance Liquid Chromatography) on reversed phase columns with the following methods: ^[a] Measurement of LC-MS was done at pH 2,7 with 0.1% formic acid in water and with acetonitrile (contains 0.1% formic acid) as eluent with a linear gradient from 10% acetonitrile to 95% acetonitrile. Calibration was done with not branched alkan2-ones (with 3 to 16 carbon atoms) with known log P-values (measurement of log P values using retention times with linear interpolation between successive alkanones). lambda-maX-values were determined using UV-spectra from 200 nm to 400 nm and the peak values of the chromatographic signals.

SMILES | Efficacy in % found (Septoria tritici; 50 ppm a.i.) | Efficacy in % found (Alternaria solani; 0.125 ppm a.i.) | Efficacy in % found (Alternaria solani; 0.25 ppm a.i.) | also measured
CC1(C)CN=C(c2cnc3ccccc3c2)c2cccc(F)c2O1 [Compound B1-1, 9-fluoro-2,2-dimethyl-5-(quinolin-3-yl)-2,3-dihydro-1,4-benzoxazepine] | 25% |  |  | 
Cc1nc2c(F)cccc2cc1Oc1cccc(F)c1C(C)(C)O [Compound B1-2, 2-{2-fluoro-6-[(8-fluoro-2-methylquinolin-3-yl)oxy]phenyl}propan-2-ol] | 0% |  |  | 
Cc1nc2c(F)c(F)ccc2cc1Oc1cccc(F)c1C(C)(C)O [Compound B1-3, 2-{2-[(7,8-difluoro-2-methylquinolin-3-yl)oxy]-6-fluorophenyl}propan-2-ol] | 25% |  |  | 
CC1(C)N=C(c2cnc3ccccc3c2)c2ccccc2C1(F)F [Compound B1-4] |  | 0% | 0% | Efficacy in % found (Alternaria solani; 0.5 ppm a.i.): 15%; Efficacy in % found (Septoria tritici; 60 ppm a.i.): 13%
CON(C(=O)c1cn(C)nc1C(F)F)C(C)Cc1c(Cl)cc(Cl)cc1Cl (stereo not drawn) [Compound I-1, 3-(difluoromethyl)-N-methoxy-1-methyl-N-[1-(2,4,6-trichlorophenyl)propan-2-yl]-1H-pyrazole-4-carboxamide] |  | 73% | 85% | Efficacy in % found (Septoria tritici; 5 ppm a.i.): 50%; Efficacy in % found (Septoria tritici; 10 ppm a.i.): 63%
CON(C(=O)c1c(C(F)F)nn(C)c1F)C(C)Cc1c(Cl)cc(Cl)cc1Cl (stereo not drawn) [Compound I-2, 3-(difluoromethyl)-5-fluoro-N-methoxy-1-methyl-N-[1-(2,4,6-trichlorophenyl)propan-2-yl]-1H-pyrazole-4-carboxamide] |  |  |  | chromatographic logP [1]: 4.29
